Source: ChEMBL document CHEMBL5214970, “Discovery and optimization of orally bioavailable and potent plasma Kallikrein inhibitors bearing a quaternary carbon” (Bioorg Med Chem, 2022)

Target: T1, Plasma kallikrein (Homo sapiens, UniProt P03952)
Assay: Inhibition of purified human plasma kallikrein using H-D-Pro-Phe-Arg-pNA.2HCl as substrate measured after 3 mins by microplate reader analysis
Details: not given

T1 sequence (P03952 20-390 limits assumed): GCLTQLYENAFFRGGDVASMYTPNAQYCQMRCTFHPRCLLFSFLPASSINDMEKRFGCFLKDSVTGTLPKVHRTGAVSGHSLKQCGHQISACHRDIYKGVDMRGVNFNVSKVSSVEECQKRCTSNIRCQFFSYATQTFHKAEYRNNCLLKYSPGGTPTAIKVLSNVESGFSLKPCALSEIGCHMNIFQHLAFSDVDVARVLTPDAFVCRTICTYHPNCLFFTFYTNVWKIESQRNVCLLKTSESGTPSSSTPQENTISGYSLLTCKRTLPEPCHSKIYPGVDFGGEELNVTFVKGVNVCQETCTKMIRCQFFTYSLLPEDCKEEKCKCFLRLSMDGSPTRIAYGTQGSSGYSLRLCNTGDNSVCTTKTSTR
T1 sequence (P03952 391-638 limits assumed): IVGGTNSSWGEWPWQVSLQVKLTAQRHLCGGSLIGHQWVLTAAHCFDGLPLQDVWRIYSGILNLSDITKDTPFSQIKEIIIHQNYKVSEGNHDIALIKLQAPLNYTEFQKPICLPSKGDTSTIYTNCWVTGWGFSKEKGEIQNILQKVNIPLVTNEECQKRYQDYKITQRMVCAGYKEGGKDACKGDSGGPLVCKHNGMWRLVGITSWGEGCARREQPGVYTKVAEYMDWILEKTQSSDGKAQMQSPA

| IC50 | Compound |
| --- | --- |
| 59 nM | NCc1cccc(-n2nc(C(F)(F)F)cc2C(=O)Nc2cccc(C(O)(CCC3CC3)c3ccncc3)c2)c1 (stereo in doubt; 24) |
| 62 nM | NCc1cccc(-n2nc(C(F)(F)F)cc2C(=O)Nc2cccc(C(O)(CCC3CC3)c3ccccc3)c2)c1 (stereo in doubt; 11) |
| 180 nM | NCc1cccc(-n2nc(C(F)(F)F)cc2C(=O)Nc2cc(C(O)(CCC3CC3)c3ccncc3)ccc2F)c1 (stereo in doubt; 26) |
| 5.4 nM | NCc1cccc(-n2nc(C(F)(F)F)cc2C(=O)Nc2cccc(C(NCC3CC3)c3ccccc3)c2)c1 (stereo not drawn) |
| 5.7 nM | NCc1cccc(-n2nc(C(F)(F)F)cc2C(=O)Nc2cccc(C(O)(CCC3CC3)c3cccnc3)c2)c1 (stereo in doubt; 8) |

Second part, the compound before the results:

| Compound | IC50 |
| --- | --- |
| N#Cc1cccc(C(N)(CCC2CC2)c2ccc(F)c(NC(=O)c3cc(C(F)(F)F)nn3-c3cccc(CN)c3)c2)c1 (stereo in doubt; 38) | 234 nM |
| N#Cc1cccc(C(N)(CCC2CC2)c2ccc(F)c(NC(=O)c3cc(C(F)(F)F)nn3-c3cccc(CN)c3)c2)c1 (stereo in doubt; 37) | 1.3 nM |
| Cc1cc(C(N)(CCC2CC2)c2ccc(F)c(NC(=O)c3cc(C(F)(F)F)nn3-c3cccc(CN)c3)c2)ccn1 (stereo in doubt; 35) | 1.2 nM |
| N#Cc1cccc(C(N)(CCC2CC2)c2ccc(F)c(NC(=O)c3cc(C(F)(F)F)nn3-c3cccc(CN)c3)c2)n1 (stereo not drawn) | 2.9 nM |
| Cc1cc(C(N)(CCC2CC2)c2ccc(F)c(NC(=O)c3cc(C(F)(F)F)nn3-c3cccc(CN)c3)c2)ccn1 (stereo in doubt; 36) | 18.4 nM |

Target: T1, Plasma kallikrein
Assay: Inhibition of endogenous human plasma kallikrein using Z-Phe-Arg-AMC.HCl as substrate measured after 5 mins by microplate reader analysis
Details: not given

| IC50 | Compound |
| --- | --- |
| 178 nM | NCc1cccc(-n2nc(C(F)(F)F)cc2C(=O)Nc2cccc(C(O)(CCC3CC3)c3ccncc3)c2)c1 (stereo in doubt; 24) |
| 1190 nM | NCc1cccc(-n2nc(C(F)(F)F)cc2C(=O)Nc2cccc(C(O)(CCC3CC3)c3ccccc3)c2)c1 (stereo in doubt; 11) |
| 165 nM | NCc1cccc(-n2nc(C(F)(F)F)cc2C(=O)Nc2cc(C(O)(CCC3CC3)c3ccncc3)ccc2F)c1 (stereo in doubt; 26) |
| 19.3 nM | NCc1cccc(-n2nc(C(F)(F)F)cc2C(=O)Nc2cccc(C(NCC3CC3)c3ccccc3)c2)c1 (stereo not drawn) |
| 23 nM | NCc1cccc(-n2nc(C(F)(F)F)cc2C(=O)Nc2cccc(C(O)(CCC3CC3)c3cccnc3)c2)c1 (stereo in doubt; 8) |

Continued, compound first:

| Compound | IC50 |
| --- | --- |
| N#Cc1cccc(C(N)(CCC2CC2)c2ccc(F)c(NC(=O)c3cc(C(F)(F)F)nn3-c3cccc(CN)c3)c2)c1 (stereo in doubt; 38) | 382 nM |
| N#Cc1cccc(C(N)(CCC2CC2)c2ccc(F)c(NC(=O)c3cc(C(F)(F)F)nn3-c3cccc(CN)c3)c2)c1 (stereo in doubt; 37) | 3.2 nM |
| Cc1cc(C(N)(CCC2CC2)c2ccc(F)c(NC(=O)c3cc(C(F)(F)F)nn3-c3cccc(CN)c3)c2)ccn1 (stereo in doubt; 35) | 3 nM |
| N#Cc1cccc(C(N)(CCC2CC2)c2ccc(F)c(NC(=O)c3cc(C(F)(F)F)nn3-c3cccc(CN)c3)c2)n1 (stereo not drawn) | 12 nM |

System: not listed separately
Assay: Cmax in Sprague-Dawley rat at 10 mg/kg,po
Format: ADME, organism-based
Design: dose 10 mg/kg, route po
Details: Sprague-Dawley, in vivo, read-out: Cmax

| Compound | Cmax |
| --- | --- |
| N#Cc1ccc(C(N)(CCC2CC2)c2ccc(F)c(NC(=O)c3cc(C(F)(F)F)nn3-c3cccc(CN)c3)c2)cc1 (stereo in doubt; 41) | 303 ng/mL |
| NCc1cccc(-n2nc(C(F)(F)F)cc2C(=O)Nc2cc(C(N)(CCC3CC3)c3cccnc3)ccc2F)c1 (stereo in doubt; 31) | 190 ng/mL |
| N#Cc1cccc(C(N)(CCC2CC2)c2ccc(F)c(NC(=O)c3cc(C(F)(F)F)nn3-c3cccc(CN)c3)c2)c1 (stereo in doubt; 37) | 429 ng/mL |
| Cc1cc(C(N)(CCC2CC2)c2ccc(F)c(NC(=O)c3cc(C(F)(F)F)nn3-c3cccc(CN)c3)c2)ccn1 (stereo in doubt; 35) | 390 ng/mL |
| N#Cc1cccc(C(N)(CCC2CC2)c2ccc(F)c(NC(=O)c3cc(C(F)(F)F)nn3-c3cccc(CN)c3)c2)n1 (stereo not drawn) | 676 ng/mL |
| NCc1cccc(-n2nc(C(F)(F)F)cc2C(=O)Nc2cc(C(N)(CCC3CC3)c3ccccn3)ccc2F)c1 (stereo in doubt; 29) | 157 ng/mL |
| NCc1cccc(-n2nc(C(F)(F)F)cc2C(=O)Nc2cc(C(O)(CCC3CC3)c3cccnc3)ccc2F)c1 (stereo in doubt; 20) | 383 ng/mL |

Same assay, conditions: in vivo

| Compound | Cmax |
| --- | --- |
| NCc1cccc(-n2nc(C(F)(F)F)cc2C(=O)Nc2cc(C(O)(CCC3CC3)c3cccnc3)ccc2F)c1 (stereo in doubt; 21) | 224 ng/mL |

System: not listed separately
Assay: Cmin in Sprague-Dawley rat at 10 mg/kg,po measured after 24 hrs
Format: ADME, organism-based
Details: Sprague-Dawley, in vivo, read-out: Cmin

| Compound | concentration at 24 h |
| --- | --- |
| N#Cc1ccc(C(N)(CCC2CC2)c2ccc(F)c(NC(=O)c3cc(C(F)(F)F)nn3-c3cccc(CN)c3)c2)cc1 (stereo in doubt; 41) | 40.1 ng/mL |
| NCc1cccc(-n2nc(C(F)(F)F)cc2C(=O)Nc2cc(C(N)(CCC3CC3)c3cccnc3)ccc2F)c1 (stereo in doubt; 31) | 9.62 ng/mL |
| N#Cc1cccc(C(N)(CCC2CC2)c2ccc(F)c(NC(=O)c3cc(C(F)(F)F)nn3-c3cccc(CN)c3)c2)c1 (stereo in doubt; 37) | 56.5 ng/mL |
| Cc1cc(C(N)(CCC2CC2)c2ccc(F)c(NC(=O)c3cc(C(F)(F)F)nn3-c3cccc(CN)c3)c2)ccn1 (stereo in doubt; 35) | 24.5 ng/mL |
| N#Cc1cccc(C(N)(CCC2CC2)c2ccc(F)c(NC(=O)c3cc(C(F)(F)F)nn3-c3cccc(CN)c3)c2)n1 (stereo not drawn) | 53.3 ng/mL |
| NCc1cccc(-n2nc(C(F)(F)F)cc2C(=O)Nc2cc(C(N)(CCC3CC3)c3ccccn3)ccc2F)c1 (stereo in doubt; 29) | 15.1 ng/mL |
| NCc1cccc(-n2nc(C(F)(F)F)cc2C(=O)Nc2cc(C(O)(CCC3CC3)c3cccnc3)ccc2F)c1 (stereo in doubt; 20) | 13 ng/mL |

Same assay, conditions: in vivo, po, 10 mg/kg, 24 h

| Compound | Cmin |
| --- | --- |
| NCc1cccc(-n2nc(C(F)(F)F)cc2C(=O)Nc2cc(C(O)(CCC3CC3)c3cccnc3)ccc2F)c1 (stereo in doubt; 21) | 9 ng/mL |

System: not listed separately
Assay: AUC (0 to 24hrs) in Sprague-Dawley rat at 10 mg/kg,po
Format: ADME, organism-based
Design: time < 24 hr, dose 10 mg/kg, route po
Details: Sprague-Dawley, in vivo

| Compound | AUC(0-t) at 24 h |
| --- | --- |
| N#Cc1ccc(C(N)(CCC2CC2)c2ccc(F)c(NC(=O)c3cc(C(F)(F)F)nn3-c3cccc(CN)c3)c2)cc1 (stereo in doubt; 41) | 2290 ng·h/mL |
| NCc1cccc(-n2nc(C(F)(F)F)cc2C(=O)Nc2cc(C(N)(CCC3CC3)c3cccnc3)ccc2F)c1 (stereo in doubt; 31) | 888 ng·h/mL |
| N#Cc1cccc(C(N)(CCC2CC2)c2ccc(F)c(NC(=O)c3cc(C(F)(F)F)nn3-c3cccc(CN)c3)c2)c1 (stereo in doubt; 37) | 3330 ng·h/mL |
| Cc1cc(C(N)(CCC2CC2)c2ccc(F)c(NC(=O)c3cc(C(F)(F)F)nn3-c3cccc(CN)c3)c2)ccn1 (stereo in doubt; 35) | 1560 ng·h/mL |
| N#Cc1cccc(C(N)(CCC2CC2)c2ccc(F)c(NC(=O)c3cc(C(F)(F)F)nn3-c3cccc(CN)c3)c2)n1 (stereo not drawn) | 2890 ng·h/mL |
| NCc1cccc(-n2nc(C(F)(F)F)cc2C(=O)Nc2cc(C(N)(CCC3CC3)c3ccccn3)ccc2F)c1 (stereo in doubt; 29) | 960 ng·h/mL |
| NCc1cccc(-n2nc(C(F)(F)F)cc2C(=O)Nc2cc(C(O)(CCC3CC3)c3cccnc3)ccc2F)c1 (stereo in doubt; 20) | 1440 ng·h/mL |

Same assay, conditions: in vivo, 24 h

| Compound | AUC |
| --- | --- |
| NCc1cccc(-n2nc(C(F)(F)F)cc2C(=O)Nc2cc(C(O)(CCC3CC3)c3cccnc3)ccc2F)c1 (stereo in doubt; 21) | 887 ng·h/mL |
